The nature of this data set: Human HepG2 cell viability assay in 384 well format. On the set-up: dose 125 nL, time 70.5 hour; concentration not given beside the values. Type of data set: toxicity, cell-based. To be noted: HepG2 cells, read-out: Inhibition.
Regarding `O=S(=O)(CCN1CCN(c2ccccc2O)CC1)c1ccc(Cl)cc1`, the cytotoxicity at 70.5 h was -14.3%.
For the compound `O=C(CCNc1ccccc1)NC1CCN(C(=O)C2CCCCC2)CC1`, the cytotoxicity at 70.5 h was -5.78%.
Next, `Cc1cnn(CC2CN(CC(=O)Nc3c(C)nn(C)c3C)CCO2)c1` (centres undefined): -4.95%.
Next, `CC(C)OCCC(=O)NS(=O)(=O)N1CCOc2ccccc21`: -0.303%.
Next, `Cc1cc(NC(=O)CNC2CCc3ncnn3C2)on1` (centres undefined): 9.31%.
Take `CCCS(=O)(=O)NCC(O)c1c(Cl)cccc1Cl` (centres undefined): the cytotoxicity at 70.5 h was -0.597%.
Next, `O=C(NC1CCN(CC2CC2)C1)N1CCC(OC2CCCCC2)CC1` (centres undefined): 14.5%; `O=C(NC1CCN(CC2CCCC2)C1)N1CCC(OCC2CC2)CC1` (centres undefined): 6.83%; `Cn1cc(CNC2CCCOc3c2ccc2ccccc32)cn1` (centres undefined): 2.1%.
`O=S(=O)(Cc1ccccc1Cl)CC(O)CO` (centres undefined): the cytotoxicity at 70.5 h was 4.74%.
Turning to `O=S(=O)(CCO)CCc1ccccc1Cl`, the cytotoxicity at 70.5 h is -9.35%.
In the case of `Cc1ncccc1NS(=O)(=O)Cc1cccc(F)c1`, the cytotoxicity at 70.5 h is -2.53%.
Next, `Cc1nc2cc(NCc3cnn(C)c3)ccc2n1C`: -2.05%; `Cc1ccc(Br)cc1NC(=O)NC1CCC2(C1)OCCO2` (centres undefined): 18.1%.
For `COc1cc(Cl)c(CN2CCC(C(N)=O)C2)cc1Cl` (centres undefined), the cytotoxicity at 70.5 h amounted to 4.93%.
Next, `CC1CCN(S(=O)(=O)N2CCCN(CC3CCCO3)CC2)CC1` (centres undefined): 13.3%; `CN1CCCC(CNC(=O)N(C)Cc2ccc(Cl)c(F)c2)C1` (centres undefined): 7.7%; `CCOC(C)c1nccn1Cc1cc(C)on1` (centres undefined): -1.6%.
Turning to `CC(NCCn1cccn1)c1ccccc1Cl` (centres undefined), the cytotoxicity at 70.5 h is 10.3%.
For `O=C(CSCc1ccccn1)NCC1CC1`, the cytotoxicity at 70.5 h amounted to 0.905%.
As to `CCC(O)(CNCc1cc[nH]n1)c1ccc(Br)cc1` (centres undefined), the cytotoxicity at 70.5 h was found to be 6.78%.
Next, `Cc1c(NCc2ccccc2C#N)cccc1-n1cnnn1`: -3.47%; `CC(C(=O)NC1CC1)S(=O)(=O)Cc1noc(C(C)(C)C)n1` (centres undefined): -1.87%.
Next, `CC(C)N(C)S(=O)(=O)NCc1cccnc1N(C)C`: -4.22%.
For `CC(C(=O)NC1CC1)S(=O)(=O)Cc1nc(Cc2ccccc2)no1` (centres undefined), the cytotoxicity at 70.5 h is -0.763%.
Next, `CC(C(=O)NC1CCCC1)S(=O)(=O)Cc1noc(C(C)(C)C)n1` (centres undefined): 7.9%.
Next, `c1ccc2c(c1)OCCC2NCc1ccc(N2CCOCC2)cc1` (centres undefined): -2.79%; `O=C(c1cccnc1O)N1CCOC(c2ccc(Cl)cc2)C1` (centres undefined): -0.483%.
Next, `Cc1cc(N(Cc2cccnc2)C2CC2)n2nc(C(F)(F)F)nc2n1`: 9.82%.
For the compound `CN1CCC(CNC(=O)NCc2ccc(N(C)C)cc2)CC1`, the cytotoxicity at 70.5 h was -2.97%.
In the case of `O=C1CSc2ccc(C(=O)N3CCCC(n4cccn4)C3)cc2N1` (centres undefined), the cytotoxicity at 70.5 h is -0.55%.
Turning to `Fc1ccc2c(c1)CCC2NCc1ccc(N2CCOCC2)cc1` (centres undefined), the cytotoxicity at 70.5 h turned out to be 7.55%.
Next, `O=C1COc2cc(C(=O)N3CCCC(n4ccnc4)C3)ccc2N1` (centres undefined): -1.66%.
Next, `COc1ccc(-c2noc(C3=NN(C)C(=O)CC3)n2)cc1OC`: -3.46%; `CCCC(C)CS(=O)(=O)NCc1cccnc1OC` (centres undefined): 1.49%.
On to `CC(C)Cc1nc(CN2CCC(N3CCN(C)C3=O)CC2)no1`, for which the cytotoxicity at 70.5 h was -1.18%.
Next, `Cc1ccc(OCc2cccc(C(=O)N(C)C(C)CC#N)c2)cn1` (centres undefined): 0.55%.
Next, `CN1N=C(c2nc(Cc3cccc(Br)c3)no2)CCC1=O`: -2.2%; `Cc1[nH]ncc1CCCNC(=O)N1CCN2CCCCC2C1` (centres undefined): 8.45%; `CCc1oc(C(=O)N2CCCC(c3nnn[nH]3)C2)cc1C` (centres undefined): -4.85%.
On to `COc1ccc(Cc2noc(C3=NN(C)C(=O)CC3)n2)cc1OC`, for which the cytotoxicity at 70.5 h is -2.26%.
As for `COCCN(Cc1noc(-c2ccc(OC)cc2)n1)C1CC1`, the cytotoxicity at 70.5 h is -0.841%.
Next, `CCN(CC(C)C#N)C(=O)c1cccc(COc2ccc(C)nc2)c1` (centres undefined): -4.47%; `N#CCCN(CC1CCOC1)Cn1ccc(-c2ccsc2)n1` (centres undefined): 0.369%; `CC(C(=O)N1CCCC1)S(=O)(=O)Cc1noc(C(C)(C)C)n1` (centres undefined): -2.28%.
Next, `CC(O)CN1CCC(CN(C)Cc2cc(F)cc3cccnc23)CC1` (centres undefined): -2.25%.
Next, `O=C(c1cnc(-c2ccccc2)s1)N1CCC2(CC1)OCCO2`: 7.39%; `Cc1cc(C)n(CC(C)CNC(=O)NCc2ccco2)n1` (centres undefined): -10.4%.
In the case of `CCN(CC)S(=O)(=O)c1cc(NC(=O)CCc2cscn2)ccc1C`, the cytotoxicity at 70.5 h is -6.12%.
Next, `CC(C)CC(NC(=O)CN(C)C(=O)c1ccco1)c1cccs1` (centres undefined): -9.94%; `CC(C)CC(NC(=O)CN(C)c1cnccn1)c1cccs1` (centres undefined): -6.01%.
Next, `CCC(=O)NC(CC(C)C)c1cccs1` (centres undefined): -14%; `Oc1cccc(CNCCC2CCCO2)c1` (centres undefined): -12.5%; `CC(C)N(C)C(=O)C1CSCN1S(=O)(=O)c1ccccc1F` (centres undefined): -9.21%.
Next, `Cn1ccc(C(=O)Nc2cccc(-c3ccc4c(c3)CCO4)n2)cc1=O`: -20.6%; `O=C1C=CC=N/C1=C(/O)NCCNS(=O)(=O)N1CCCCCC1`: -9.06%.
As for `O=C(COC1CCCC1)N1CCC(C(O)c2ccc(F)cc2)CC1` (centres undefined), the cytotoxicity at 70.5 h is -8.09%.
Consider `Cc1ccc(C(=O)NCCS(=O)(=O)N2CCSCC2)o1`, for which the cytotoxicity at 70.5 h worked out at 3.19%.
Next, `Cc1ccccc1C1(CNCc2cnc(N3CCOCC3)nc2)CC1`: 5.8%; `Cc1ncccc1C(=O)NCC(C)Oc1ccc(F)cc1` (centres undefined): 24.4%.
On to `CCc1ccc(C(COC)NC(=O)c2ccsc2)o1` (centres undefined), for which the cytotoxicity at 70.5 h was -3.72%.
Next, `Cn1c(C2CC2)nc2c1CCN(Cc1nc3ccccc3s1)C2`: 23.2%; `O=C1N(CC2CC2)C(c2cncs2)NC12CCCC2` (centres undefined): -4.01%.
Next, `COc1ccccc1N1CCN(CC(=O)NC(C)c2ccco2)CC1` (centres undefined): -5.63%; `O=C1CCCN1Cc1ccc(C(=O)N2CCCC2c2cccs2)cc1` (centres undefined): -6.75%; `CC(NC(=O)CN1CCN(c2ccncc2Cl)CC1)c1ccco1` (centres undefined): -7.35%.
As to `CCc1ccc(C(COC)NC(=O)c2ccc(F)c(NC(C)=O)c2)o1` (centres undefined), the cytotoxicity at 70.5 h came to 23.6%.
Take `CCN(Cc1ccco1)C(C)c1nc(C)no1` (centres undefined): the cytotoxicity at 70.5 h is -2.63%.
Next, `CCN(Cc1ccco1)C(C)c1nc(C(C)C)no1` (centres undefined): -3.54%; `COc1ccnc(NC(Cc2ccccc2)C(N)=O)n1` (centres undefined): -3.74%.
Next, `CCOc1ccc(CNC(C)c2c(C)nn(C)c2C)cc1` (centres undefined): 20.4%.
Next, `Cc1nc(CN2CCCN(CCCc3ccccc3)CC2)no1`: -7.12%; `CC(c1ccc(S(C)(=O)=O)cc1)N(C)C(=O)c1ccccc1I` (centres undefined): -4.13%; `CCOc1ccccc1C(=O)N(C)C(C)c1ccc(S(C)(=O)=O)cc1` (centres undefined): -6.38%.
Regarding `Cc1ccc(N(CC(=O)N2CCCCC2)C(=O)C2COCCO2)cc1` (centres undefined), the cytotoxicity at 70.5 h is -2.98%.
Regarding `CC1CCCN(CCCNC(=O)Cc2csc(-c3ccoc3)n2)C1` (centres undefined), the cytotoxicity at 70.5 h was -3.83%.
Next, `Cc1nc(CN2CCN(CCCc3nc4ccccc4o3)CC2)no1`: -0.419%; `Cc1nn(C)c(C)c1C(C)NCc1ccc(OC(C)C)cc1` (centres undefined): -1.94%; `Cc1nc(CN2CCN(CCCc3ccccc3)CC2)no1`: 1.83%.
Next, `Cc1cccc(N(CC(=O)N2CCCCC2)C(=O)C2CCCO2)c1` (centres undefined): 2.3%.
Next, `CSCc1cc(F)ccc1CNC(=O)N1CCCC1`: -4.58%; `O=C(c1csc(-c2ccco2)n1)N1CCOc2ncccc21`: 0.101%; `COc1cccc(-c2cnc(CNC(C)(C)c3nc(C)cs3)o2)c1`: -4.32%.
As to `Cc1noc(C(C)N(C)Cc2ccco2)n1` (centres undefined), the cytotoxicity at 70.5 h is -6.09%.
Next, `CCCc1noc(C(C)N(CC)Cc2ccco2)n1` (centres undefined): 7.58%; `CCN(Cc1ccco1)C(C)c1nc(C(C)(C)C)no1` (centres undefined): -3.44%; `Cc1cscc1-c1nc(C2CCOC2)no1` (centres undefined): -5.31%.
With `COCCSCC(=O)NCc1ccc(N(C)C)nc1`, the cytotoxicity at 70.5 h was -4.15%.
On to `CSCc1cc(F)ccc1CNC(=O)N1CCC[C@@H]1CO`, for which the cytotoxicity at 70.5 h is -4.06%.
Next, `CSCc1cc(F)ccc1CNC(=O)N1CCOCC1`: -10.7%; `CSCc1cc(F)ccc1CNC(=O)N1CCCC(CO)C1` (centres undefined): -7.73%.
Next, `CCc1nc(C)c(C(C)N(C)CCc2ccccn2)s1` (centres undefined): 9.61%; `COc1ccc(CN(C(=O)C(C)SC)c2cnn(C)c2)c(OC)c1` (centres undefined): 1.09%; `COc1ccc(S(=O)(=O)C(F)(F)F)cc1NC(=O)CSCC#N`: 1.04%.
Next, `O=C(C1CCCO1)N1CCC(c2nc(-c3ccccc3)n[nH]2)CC1` (centres undefined): 1.35%; `Cc1ccccc1CC(C)(C)NC(=O)COc1cccc(C(N)=O)c1`: -0.108%.
As for `CCOc1ccccc1C(=O)N1CCn2c(nnc2C(F)(F)F)C1`, the cytotoxicity at 70.5 h is -1.86%.
Next, `COc1ccc(CN(C(=O)C(C)C)c2cnn(C)c2)c(OC)c1`: -1.23%; `Cc1nccn1-c1ccc(C(C)NCc2ncc[nH]2)cc1` (centres undefined): 12.6%.
Next, `FCCOc1cccc(NCc2c[nH]nc2-c2cccnc2)c1`: -3.33%; `CCN(CC)S(=O)(=O)c1ccc(OC)c(NC(=O)CSC)c1`: 12.2%; `Cc1csc(CCNCc2cnc3c(c2)c(C)nn3C)n1`: 5.91%.
Next, `O=C1CC(NCc2cnc(N3CCCC3)nc2)CN1c1ccccc1` (centres undefined): 1.08%; `Clc1ccc(C2(CNC3=NCCN3)CCCCC2)cc1`: 26.8%.

(Values after ChEMBL document CHEMBL3507680, “University of Dundee, Gates Library screen for HepG2 cell viability”.)
